Assay results from patent publication US8088733B2 (Tranzyme Pharma Inc., priority 2006, dated 2012).

How the values were obtained:
rats dosed with morphine = assay: Rat model of opioid-induced bowel dysfunction (morphine-delayed gastric emptying and small intestinal transit); assay type: in vivo; settings: morphine 3 mg/kg s.c.
Excerpt: Opioid analgesics, such as morphine, are well known to delay gastrointestinal transit, which is a noted side effect for this class of drugs. (Greenwood-van Meerveld, B.; Gardner, C. J.; Little, P. J.; Hicks, G. A.; DeHaven-Hudkins, D. L. Preclinical studies of opioids and opioid antagonists on gastrointestinal function. Neurogastroenterol. Motil. 2004, 16, 46-53.) The clinical term for this syndrome is opioid-induced bowel dysfunction (OBD). The aim of this study was to determine whether test compounds can effectively reverse morphine-induced delayed gastric emptying and small intestinal transit in a rat model of opioid-induced bowel dysfunction.
• 1. Rats (male, Sprague-Dawley, 250-300 g, N=6-7/gp) were implanted with jugular vein catheters to accommodate dosing of test articles. • 2. Overnight-fasted rats were administered morphine by sub-cutaneous injection (3 mg/kg). • 3. After 60 minutes, rats were dosed (i.v. bolus) with vehicle, test compound (0.30, 1.0 mg/kg) or GHRP-6 (0.02 mg/kg) followed by intragastric gavage of ^99mTc methylcellulose (2%) meal. • 4. After 15 minutes, the rats were euthanized and the stomach and consecutive 10 cm segments of the intestine are isolated. Radioactivity (^99mTc) in each tissue isolate is measured as a means of measuring gastric emptying and small intestinal transit. • 5. One-way ANOVA, Dunnet's post-hoc statistical test was applied. • 6.
• 1. […] Methods • 1. Rats (male, Sprague-Dawley, 250-300 g) were implanted with jugular vein catheters to accommodate dosing of test articles. • 2. Overnight-fasted rats were administered morphine (3 mg/kg s.c.). • 3. […] After 15 min, the rats were euthanized and the stomach and consecutive 10 cm segments of the intestine are isolated. Radioactivity (^99mTc) in each tissue isolate was measured as a means of measuring the transit of the meal. • 5. Results

fasted Wistar rats = assay: Gastric emptying of a phenol red-labelled methylcellulose meal in fasted naive rats (model for gastroparesis); assay type: in vivo, rat; settings: for increase in gastric emptying relative to the vehicle control group: 15 min after meal; for potency in gastric emptying compared to metoclopramide, based on the different dose levels: dose-dependent, FIG. 2
Description: To examine the effects of compounds of the invention in a model for gastroparesis, compounds were evaluated for possible effects on gastric emptying in fasted rats as described below.
GHRP-6 and test samples were dissolved in vehicle of 9% HPBCD/0.9% NaCl. Immediately following oral administration of methylcellulose (2%) containing phenol red (0.05%) (2 mL/rat), test substances or vehicle (9% HPBCD/0.9% NaCl) were each administered intravenously (i.v.) at a dosing volume of 5 mL/kg.
Test substances were each administered intravenously to a group of 5 O/N-fasted Wistar derived male rats weighing 200±20 g immediately after methylcellulose (2%) containing phenol red (0.05%) was administered orally at 2 mL/animal. The animals were then sacrificed 15 minutes later. The stomach was immediately removed, homogenized in 0.1 N NaOH (5 mL) and centrifuged. Following protein precipitation by 20% trichloroacetic acid (0.5 mL) and re-alkalization of the supernatant with 0.1 N NaOH, total phenol red remaining in the stomach was determined by a colorimetric method at 560 nm. A 30 percent or more (≧30%) increase in gastric emptying, detected as the decrease in phenol red concentration in the stomach relative to the vehicle control group, is considered significant.
• 1. To ascertain data for representative compounds 25 and 298 as prokinetic agents with potent effects on gastric emptying, a model for gastroparesis. Methods • 1. Overnight-fasted rats (male, Wistar, ˜200 g, N=5/group) were given a meal of methylcellulose (2%) by intragastric gavage. The meal was labeled with phenol red (0.05%). • 2. […] Animals were sacrificed 15 minutes later; the stomach was immediately removed and homogenized in 0.1 N NaOH and centrifuged. • 4. Total phenol red remaining in the stomach was quantified by a colorimetric method at 560 nm. • 5. A >30% increase in gastric emptying, detected based on the phenol red concentration in comparison to the control group, is considered significant. Results

[1] = system: POI rats concurrently dosed with morphine; assay: Combination rat model of post-operative ileus and opioid-induced bowel dysfunction; assay type: in vivo
[2] = GHRP-6 0.02 mg/kg i.v., mean ± sem

Compound: CN1CC[C@]23c4c5ccc(O)c4O[C@H]2[C@@H](O)C=C[C@H]3[C@H]1C5 [morphine]
- gastric emptying and small intestinal transit (rats dosed with morphine; preliminary study): significantly delayed

Compound: CCN(CC)CCNC(=O)c1cc(Cl)c(N)cc1OC [metoclopramide, reference compound]
- increase in gastric emptying relative to the vehicle control group (fasted Wistar rats; 10 mg/kg i.v.): 41%

Compound: CCC(C)[C@@H]1NCCOc2ccccc2CCCNC(=O)[C@@H](Cc2ccc(Cl)cc2)NC(=O)[C@@H](C)N(C)C1=O (stereo partly drawn) [Compound 25]
- gastric emptying (fasted Wistar rats; 30 μg/kg): significant gastric emptying
- increase in gastric emptying relative to the vehicle control group (fasted Wistar rats; 100 μg/kg i.v.): 39%
- potency in gastric emptying compared to metoclopramide, based on the different dose levels (fasted Wistar rats): ~100 fold

Compound: GHRP-6
- increase in gastric emptying relative to the vehicle control group (fasted Wistar rats; 20 μg/kg i.v.): 40%
- Geometric Center (rats dosed with morphine; [2]): 3.38 ± 0.76
- Intragastric Residue (%) (rats dosed with morphine; [2]): 0.48 ± 0.10%

Compound: C[C@@H]1CN[C@@H](C2CC2)C(=O)N(C)[C@H](C)C(=O)N[C@H](Cc2ccc(F)cc2)C(=O)NCCCc2ccccc2O1 [Compound 298]
- potency in gastric emptying compared to metoclopramide, based on the different dose levels (fasted Wistar rats): ~100 fold
- gastric emptying ([1]; 0.1, 0.3, 1, 3 mg/kg i.v., FIG. 8): significantly accelerates
- small intestinal transit ([1]; 0.1, 0.3, 1, 3 mg/kg i.v., FIG. 9): significantly accelerates
- lowest dose level effective at restoring GI motility ([1]; combination of POI and OBD): 0.1 mg/kg
